Laboratory results taken from patent US20240109930A1, “TRIAZOLYL-METHYL SUBSTITUTED ALPHA-D-GALACTOPYRANOSIDE DERIVATIVES” (Idorsia Pharmaceuticals Ltd, priority 2021, published 2024).

How the values were obtained:
human Gal-3 (hGal-3) = human Gal-3 (hGal-3) (Homo sapiens (Human), UniProt P17931); experiment: Competitive binding assay: biotinylated hGal-3 binding to microplate-adsorbed asialofetuin (ASF); details: IC50 values from several measurements given as geomean
Method in brief: (§1)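 Biotinylated hGal-3 or hGal-1 (preferably cysteine-free Cys→Ser mutant), 300–1000 ng/mL, competes with compound for ASF-coated wells for 3 h at 4 °C. Bound lectin detected with streptavidin-peroxidase (80 ng/mL, 1 h, 4 °C) and ABTS by absorbance; IC50 reported as geomean of several runs.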

human Gal-1 (hGal-1) = human Gal-1 (hGal-1) (Homo sapiens, UniProt P09382, C131S/C17S/C43S/C61S/C89S); experiment: Competitive binding assay: biotinylated hGal-1 binding to microplate-adsorbed asialofetuin (ASF); details: IC50 values from several measurements given as geomean
Method in brief: as §1

Sequence of human Gal-3 (hGal-3) (P17931 whole entry): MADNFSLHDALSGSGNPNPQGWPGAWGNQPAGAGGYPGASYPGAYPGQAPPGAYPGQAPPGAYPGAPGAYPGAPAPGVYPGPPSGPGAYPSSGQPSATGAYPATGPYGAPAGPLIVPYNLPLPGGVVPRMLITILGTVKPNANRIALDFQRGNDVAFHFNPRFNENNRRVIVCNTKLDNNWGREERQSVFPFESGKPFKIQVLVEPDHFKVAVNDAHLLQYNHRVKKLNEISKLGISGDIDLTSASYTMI

IC50 (human Gal-3 (hGal-3)) [nM]	IC50 (human Gal-1 (hGal-1)) [nM]	Compound
30	290	CO[C@@H]1[C@@H](n2cc(-c3ccc(F)c(F)c3F)nn2)[C@@H](O)[C@@H](CO)O[C@@H]1Cc1cn(C2(C)CCC2)nn1 [Ex 3.1.13.]
60	700	CO[C@@H]1[C@@H](n2cc(-c3ccc(F)c(F)c3F)nn2)[C@@H](O)[C@@H](CO)O[C@@H]1Cc1cn(C23CC(C)(C2)C3)nn1 [Ex 3.1.14.]
50	460	CO[C@@H]1[C@@H](n2cc(-c3ccc(F)c(F)c3F)nn2)[C@@H](O)[C@@H](CO)O[C@@H]1Cc1cn(C2(C)CC(F)(F)C2)nn1 [Ex 3.1.15.]
120	1110	CO[C@@H]1[C@@H](n2cc(-c3ccc(F)c(F)c3F)nn2)[C@@H](O)[C@@H](CO)O[C@@H]1Cc1cn(C2CC3(COC3)C2)nn1 [Ex 3.1.16.]
90	1390	CO[C@@H]1[C@@H](n2cc(-c3ccc(F)c(F)c3F)nn2)[C@@H](O)[C@@H](CO)O[C@@H]1Cc1cn(C2(CO)CC(F)(F)C2)nn1 [Ex 3.1.18.]
60	260	CO[C@@H]1[C@@H](n2cc(-c3ccc(F)c(F)c3F)nn2)[C@@H](O)[C@@H](CO)O[C@@H]1Cc1cn([C@]2(C)C[C@H](O)C2)nn1 [Ex 3.1.19.]
60	770	COCC1(n2cc(C[C@H]3O[C@H](CO)[C@H](O)[C@H](n4cc(-c5ccc(F)c(F)c5F)nn4)[C@H]3OC)nn2)COC1 [Ex 3.1.21.]
60	420	CO[C@@H]1[C@@H](n2cc(-c3ccc(F)c(F)c3F)nn2)[C@@H](O)[C@@H](CO)O[C@@H]1Cc1cn(C2(CCO)COC2)nn1 [Ex 3.1.22.]
50	390	CO[C@@H]1[C@@H](n2cc(-c3ccc(F)c(F)c3F)nn2)[C@@H](O)[C@@H](CO)O[C@@H]1Cc1cn(C2(C)CC2)nn1 [Ex 3.1.23.]
90	2080	CO[C@@H]1[C@@H](n2cc(-c3ccc(F)c(F)c3F)nn2)[C@@H](O)[C@@H](CO)O[C@@H]1Cc1cn(C23CC(C(F)(F)F)(C2)C3)nn1 [Ex 3.1.24.]
40	1550	CO[C@@H]1[C@@H](n2cc(-c3ccc(F)c(F)c3F)nn2)[C@@H](O)[C@@H](CO)O[C@@H]1Cc1cn(C23CC(F)(C2)C3)nn1 [Ex 3.1.25.]
70	760	CO[C@@H]1[C@@H](n2cc(-c3ccc(F)c(F)c3F)nn2)[C@@H](O)[C@@H](CO)O[C@@H]1Cc1cn(C2CC3(CC3)C2)nn1 [Ex 3.1.26.]
30	140	CO[C@@H]1[C@@H](n2cc(-c3ccc(F)c(F)c3F)nn2)[C@@H](O)[C@@H](CO)O[C@@H]1Cc1cn([C@]2(C)C[C@@H](O)C2)nn1 [Ex 3.1.27.]
30	290	CO[C@@H]1[C@@H](n2cc(-c3ccc(F)c(F)c3F)nn2)[C@@H](O)[C@@H](CO)O[C@@H]1Cc1cn(C(C)(C)C(F)F)nn1 [Ex 3.1.28., (2R,3R,4S,5R,6R)-6-((1-(1,1-difluoro-2-methylpropan-2-yl)-1H-1,2,3-triazol-4-yl)methyl)-2-(hydroxymethyl)-5-methoxy-4-(4-(2,3,4-trifluorophenyl)-1H-1,2,3-triazol-1-yl)tetrahydro-2H-pyran-3-ol]
30	760	CO[C@@H]1[C@@H](n2cc(-c3ccc(F)c(F)c3F)nn2)[C@@H](O)[C@@H](CO)O[C@@H]1Cc1cn(C23CC(OC)(C2)C3)nn1 [Ex 3.1.29.]
70	260	CO[C@@H]1[C@@H](n2cc(-c3ccc(F)c(F)c3F)nn2)[C@@H](O)[C@@H](CO)O[C@@H]1Cc1cn(C2(CF)CCC2)nn1 [Ex 3.1.40., (2R,3R,4S,5R,6R)-6-((1-(1-(fluoromethyl)cyclobutyl)-1H-1,2,3-triazol-4-yl)methyl)-2-(hydroxymethyl)-5-methoxy-4-(4-(2,3,4-trifluorophenyl)-1H-1,2,3-triazol-1-yl)tetrahydro-2H-pyran-3-ol]
30	210	CO[C@@H]1[C@@H](n2cc(-c3ccc(F)c(F)c3F)nn2)[C@@H](O)[C@@H](CO)O[C@@H]1Cc1cn(C2(C(F)F)CCC2)nn1 [Ex 3.1.43., (2R,3R,4S,5R,6R)-6-((1-(1-(difluoromethyl)cyclobutyl)-1H-1,2,3-triazol-4-yl)methyl)-2-(hydroxymethyl)-5-methoxy-4-(4-(2,3,4-trifluorophenyl)-1H-1,2,3-triazol-1-yl)tetrahydro-2H-pyran-3-ol]
70	400	CO[C@@H]1[C@@H](n2cc(-c3ccc(F)c(F)c3F)nn2)[C@@H](O)[C@@H](CO)O[C@@H]1Cc1cn(C2(CF)CC2)nn1 [Ex 3.1.46., (2R,3R,4S,5R,6R)-6-((1-(1-(fluoromethyl)cyclopropyl)-1H-1,2,3-triazol-4-yl)methyl)-2-(hydroxymethyl)-5-methoxy-4-(4-(2,3,4-trifluorophenyl)-1H-1,2,3-triazol-1-yl)tetrahydro-2H-pyran-3-ol]
40	240	CO[C@@H]1[C@@H](n2cc(-c3ccc(F)c(F)c3F)nn2)[C@@H](O)[C@@H](CO)O[C@@H]1Cc1cn(C2(C(F)F)CC2)nn1 [Ex 3.1.51.]
30	240	CO[C@@H]1[C@@H](n2cc(-c3ccc(F)c(F)c3F)nn2)[C@@H](O)[C@@H](CO)O[C@@H]1Cc1cn(C2(CF)COC2)nn1 [Ex 3.1.52.]

IC50 (human Gal-3 (hGal-3)) [nM]	IC50 (human Gal-1 (hGal-1)) [nM]	Compound
20	130	CO[C@@H]1[C@@H](n2cc(-c3ccc(F)c(F)c3F)nn2)[C@@H](O)[C@@H](CO)O[C@@H]1Cc1cn(C2(C(F)F)COC2)nn1 [Ex 3.1.53.]
50	280	CO[C@@H]1[C@@H](n2cc(-c3ccc(F)c(F)c3F)nn2)[C@@H](O)[C@@H](CO)O[C@@H]1Cc1cn(C2(C(F)(F)F)CC2)nn1 [Ex 3.1.54.]
40	180	CO[C@@H]1[C@@H](n2cc(-c3ccc(F)c(F)c3F)nn2)[C@@H](O)[C@@H](CO)O[C@@H]1Cc1cn(C2(C(F)(F)F)CCC2)nn1 [Ex 3.1.55., (2R,3R,4S,5R,6R)-2-(hydroxymethyl)-5-methoxy-6-((1-(1-(trifluoromethyl)cyclobutyl)-1H-1,2,3-triazol-4-yl)methyl)-4-(4-(2,3,4-trifluorophenyl)-1H-1,2,3-triazol-1-yl)tetrahydro-2H-pyran-3-ol]
40	200	CO[C@@H]1[C@@H](n2cc(-c3ccc(F)c(F)c3F)nn2)[C@@H](O)[C@@H](CO)O[C@@H]1Cc1cn(C2(C(F)(F)F)COC2)nn1 [Ex 3.1.58., (2R,3R,4S,5R,6R)-2-(hydroxymethyl)-5-methoxy-6-((1-(3-(trifluoromethyl)oxetan-3-yl)-1H-1,2,3-triazol-4-yl)methyl)-4-(4-(2,3,4-trifluorophenyl)-1H-1,2,3-triazol-1-yl)tetrahydro-2H-pyran-3-ol]
40	520	CO[C@@H]1[C@@H](n2cc(-c3ccc(F)c(F)c3F)nn2)[C@@H](O)[C@@H](CO)O[C@@H]1Cc1cn(C23COC(C)(C2)C3)nn1 [Ex 3.1.59.]
60	810	CO[C@@H]1[C@@H](n2cc(-c3ccc(F)c(F)c3F)nn2)[C@@H](O)[C@@H](CO)O[C@@H]1Cc1cn(C23CCOC(C)(C2)C3)nn1 [Ex 3.1.62.]
50	370	CO[C@@H]1[C@@H](n2cc(-c3ccc(F)c(F)c3F)nn2)[C@@H](O)[C@@H](CO)O[C@@H]1Cc1cn(C2CCC23CCC3)nn1 (stereo partly drawn) [Ex 3.1.82.]
100	650	CO[C@@H]1[C@@H](n2cc(-c3ccc(F)c(F)c3F)nn2)[C@@H](O)[C@@H](CO)O[C@@H]1Cn1cc(C2(CO)CC2)nn1 [Ex 3.2.4.]
70	580	CO[C@@H]1[C@@H](n2cc(-c3ccc(F)c(F)c3F)nn2)[C@@H](O)[C@@H](CO)O[C@@H]1Cn1cc(C2(C)COC2)nn1 [Ex 3.2.6.]
40	970	CO[C@@H]1[C@@H](n2cc(-c3ccc(F)c(F)c3F)nn2)[C@@H](O)[C@@H](CO)O[C@@H]1Cn1cc(C23CC(C2)C3)nn1 [Ex 3.2.12.]
80	670	CO[C@@H]1[C@@H](n2cc(-c3ccc(F)c(F)c3F)nn2)[C@@H](O)[C@@H](CO)O[C@@H]1Cn1cc(C2(C)CCC2)nn1 [Ex 3.2.13.]
80	300	CO[C@@H]1[C@@H](n2cc(-c3ccc(F)c(F)c3F)nn2)[C@@H](O)[C@@H](CO)O[C@@H]1Cn1cc(C2(C)CC2)nn1 [Ex 3.2.23.]
60	1150	CO[C@@H]1[C@@H](n2cc(-c3ccc(F)c(F)c3F)nn2)[C@@H](O)[C@@H](CO)O[C@@H]1Cn1cc(C2CCCC2)nn1 [Ex 3.2.32.]
90	1250	CO[C@@H]1[C@@H](n2cc(-c3ccc(F)c(F)c3F)nn2)[C@@H](O)[C@@H](CO)O[C@@H]1Cn1cc(C2(O)CCCC2)nn1 [Ex 3.2.33.]
440	720	CO[C@@H]1[C@@H](n2cc(-c3ccc(F)c(F)c3F)nn2)[C@@H](O)[C@@H](CO)O[C@@H]1Cn1cc(C(C)(C)O)nn1 [Ex 3.2.34.]
60	860	CO[C@@H]1[C@@H](n2cc(-c3ccc(F)c(F)c3F)nn2)[C@@H](O)[C@@H](CO)O[C@@H]1Cn1cc(C2(O)CCOCC2)nn1 [Ex 3.2.35.]
130	2140	CO[C@@H]1[C@@H](n2cc(-c3ccc(F)c(F)c3F)nn2)[C@@H](O)[C@@H](CO)O[C@@H]1Cn1cc(C2(O)CC2)nn1 [Ex 3.2.36.]
40	1720	CO[C@@H]1[C@@H](n2cc(-c3ccc(F)c(F)c3F)nn2)[C@@H](O)[C@@H](CO)O[C@@H]1Cn1cc(C23CCC(NC(=O)OC(C)(C)C)(CC2)CC3)nn1 [Ex 3.2.37.]
50	470	CCC1(c2cn(C[C@H]3O[C@H](CO)[C@H](O)[C@H](n4cc(-c5ccc(F)c(F)c5F)nn4)[C@H]3OC)nn2)COC1 [Ex 3.2.38.]
